Laboratory results taken from paper PMC5154303, “Flavonol and imidazole derivatives block HPV16 E6 activities and reactivate apoptotic pathways in HPV^+ cells” (Cell Death & Disease, 2016).

Key:
Type in all cases: cell-based, human
UMSCC 29 = assay: Sensitization to doxorubicin in HPV− HNSCC line UMSCC 29 (MTT); details: HPV− #29, compound 0–12.5 μM, 2 μM doxorubicin
Experimental: (§1) Figure 8 Myricetin and spinacine (5) can re-sensitize HPV^+, but not HPV^−, HNSCC cell lines to treatment with doxorubicin. Two HPV^− (UMMSCC 29 and SCC 84) and three HPV^+ (UMSCC 47, UPCI-SCC90-UP-Clone 35, and UM-SCC47-TC Clone 3) head and neck cancer cell lines (2 × 10^4 cells per well) were seeded into 96-well plates and allowed to incubate overnight, and then cells were pretreated with myricetin or spinacine (0–12.5 μM) for 4 h. In all, 2 μM of doxorubicin was added, and the cells were allowed to incubate overnight. Cell viability was measured by MTT assay, and the viability of cells untreated with small molecules was set at 100%. Experiments were performed in triplicate, and error bars indicate the S.D.
(§2) The extracellular domain of human TRAIL was cloned into a pTriEx expression plasmid containing N-terminal Hisx6 tag. His-TRAIL was expressed in the E. coli BL-21 pLys strain and purified as previously described. Doxorubicin and cisplatin were purchased from Sigma. His-TRAIL, doxorubicin, and cisplatin were diluted in PBS to the desired concentration before using. […] All experiments were repeated at least three times (three biological replicates, carried out on different days), with each experimental group measured in triplicate within each of these individual experiments. […]

caspase 3/7 = assay: Caspase 3/7 activity assay in SiHa cells; details: 100 μM myricetin or 50 μM spinacine 4 h, then TRAIL 100 ng/ml + cycloheximide, 0–6 h, versus controls
Experimental: Figure 4 Myricetin and spinacine (5) increase caspase 3/7 activity in SiHa cells following treatment with TRAIL and chemotherapy drugs. SiHa cells (2 × 10^4 cells per well) were seeded into a 96-well plate and allowed to incubate overnight and then pretreated with 100 μM of myricetin or 50 μM of spinacine for 4 h. (a) TRAIL (100 ng/ml), along with cycloheximide (5 μg/ml), (b) cisplatin (50 μM), or (c) doxorubicin (2 μM) were added respectively. Caspase 3/7 activity was measured after 0, 1.5, 3, and 6 h using the CellTiter-Glo assay. Activity at 0 h of treatment was set at 100% for each group. Experiments were performed in triplicate, and error bars indicate the S.D.
Cells were plated into 96-well plates at a density of 2 × 10^4 cells per well and incubated overnight. Small molecules were then added and incubated at 37 °C for 4 h. TRAIL (100 ng/ml), cisplatin (50 μM), and doxorubicin (2 μM) were then added. […] Caspase 3/7 activity was measured using the flourogenic substrate CellTitier-Glo for caspase 3/7 activity (Promega, Fitchburg, WI, USA) following the manufacturer's instructions. […] After a 10-min incubation, the released fluorophore was measured using a plate-reading fluorimeter (Flx800, Bio-Tek Instrument Co., Winooski, VT, USA). […] The resulting difference was expressed as a percentage of the caspase activity of the untreated cells.

SiHa cells = assay: TRAIL-induced apoptosis in SiHa cells (MTT); details: for viability at 125 µM / EC50: Homo sapiens; for viability at 125 µM: SiHa, 125 μM compound, TRAIL 100 ng/ml + cycloheximide 5 μg/ml, cells without small molecule = 100%, read-out: viability of SiHa cells in the presence of TRAIL; for EC50 / increase in cell death in the presence versus absence of TRAIL: SiHa cells; for EC50: compound 4 h prior to TRAIL 100 ng/ml + cycloheximide 5 μg/ml, overnight, MTT; for increase in cell death in the presence versus absence of TRAIL: from the EC50 values of Table 2
Experimental: Figure 3 (a) HPV^+ SiHa cells are resistant to TRAIL-induced apoptosis as compared with the human osteosarcoma cell line U2OS. Cells (2 × 10^4 cells per well) were seeded into a 96-well plate, allowed to incubate overnight, and then treated with the indicated concentration of TRAIL in the presence of cycloheximide (5 μg/ml). The viability of cells was measured after overnight incubation using the MTT assay; the viability of cells untreated with TRAIL was set at 100% for each group. (b) The indicated concentrations of three small molecules were added to SiHa cells, and an MTT assay was preformed after overnight incubation. The viability of cells untreated with small molecules was set as 100%. (c) The indicated concentrations of myricetin or spinacine were added 4 h prior to TRAIL (100 ng/ml) in the presence of cycloheximide (5 μg/ml) and incubated at 37 °C overnight. The viability of cells untreated with small molecules was set at 100%. (d and e) SiHa cells (2 × 10^4 cells per well) were seeded into a 96-well plate and allowed to incubate overnight. In all, 100 μM of myricetin and 50 μM of spinacine were added 4 h prior to either (d) doxorubicin or (e) cisplatin. Cell viability was measured after overnight incubation using the MTT assay, and the viability of cells untreated with either myricetin or spinacine was set at 100%. Experiments were performed in triplicate, and error bars indicate the S.D.
Figure 5 Myricetin and spinacine (5) can re-sensitize HPV^+, but not HPV^−, cells to treatment with TRAIL. SiHa (2 × 10^4 cells per well) and C33A cells (1 × 10^4 cells per well) were seeded into a 96-well plate and allowed to incubate overnight, and then cells were pretreated in the presence or absence of (a) myricetin (100 μM) or (b) spinacine (50 μM) for 4 h. The indicated concentration of TRAIL along with cycloheximide (5 μg/ml) was added, and the cells were allowed to incubate overnight. Cell viability was measured by MTT assay, and the viability of cells untreated with TRAIL was set at 100%. Experiments were performed in triplicate, and error bars indicate the S.D.
The extracellular domain of human TRAIL was cloned into a pTriEx expression plasmid containing N-terminal Hisx6 tag. His-TRAIL was expressed in the E. coli BL-21 pLys strain and purified as previously described. Doxorubicin and cisplatin were purchased from Sigma. His-TRAIL, doxorubicin, and cisplatin were diluted in PBS to the desired concentration before using. To measure cell survival following treatment with TRAIL, cisplatin and doxorubicin, SiHa (2 × 10^4/well), C33A (1 × 10^4/well), and HNSCC cells (2 × 10^4/well) were seeded into 96-well plates and allowed to adhere overnight. Small molecules at the desired concentration were added and incubated at 37 °C for 4 h. As indicated, TRAIL, cisplatin, or doxorubicin was then added. The TRAIL treatment group contained cycloheximide (5 μg/ml) to inhibit de novo protein synthesis, and the cells were incubated for 16 h prior to measuring cell viability by the MTT assay preformed as described previously.[38] All experiments were repeated at least three times (three biological replicates, carried out on different days), with each experimental group measured in triplicate within each of these individual experiments. Data presented are from a representative experiment.

UPCI-SCC90-UP-Clone 35 = assay: Sensitization to doxorubicin in HPV+ HNSCC line UPCI-SCC90-UP-Clone 35 (MTT); details: HPV+ #90, 12.5 μM compound 4 h, 2 μM doxorubicin
Experimental: as §1, §2

## O=c1c(O)c(-c2cc(O)c(O)c(O)c2)oc2cc(O)cc(O)c12 [Myricetin, myricetin, reference compound]
UMSCC 29
  response to doxorubicin in presence and absence of compound: resistant
Caspase 3/7
  caspase 3/7 activity in combination with TRAIL: increased
SiHa cells; 100 μM myricetin pretreatment 4 h, TRAIL up to 100 ng/ml + cycloheximide
  sensitivity of SiHa cells to TRAIL: increased dramatically
SiHa cells
  viability at 125 µM: 30 to 40%
  EC50: 155 µM
  increase in cell death in the presence versus absence of TRAIL: 3.5 fold

## O=C(O)C1Cc2[nH]cnc2CN1 (stereo not drawn) [Spinacine (5), 4,5,6,7-tetrahydro-1H-imidazo[4,5–c]pyridine-6-carboxylic acid]
UMSCC 29
  response to doxorubicin in presence and absence of compound: resistant
UPCI-SCC90-UP-Clone 35
  sensitization to doxorubicin: up to 50%
Caspase 3/7
  caspase 3/7 activity in combination with TRAIL: increased
SiHa cells
  viability at 125 µM: 30 to 40%
  EC50: 31.3 µM
  increase in cell death in the presence versus absence of TRAIL: 8.6 fold
